Laboratory results taken from US8158575B2, “Agent for the prevention and treatment of sexually transmitted diseases-I” (priority 2001, dated 2012).

Tested on: human papillomavirus type 6b VLPs
Assay: Inhibition of uptake of HPV virus-like particles into A431 cells (flow cytometry)
Type: cell-based
Experimental: The compound was evaluated for its ability to inhibit the binding and uptake of human papillomavirus virus-like particles to a human epithelial cell line.
The compound was tested at a range of six dilutions as inhibitor of binding and of uptake of Papillomavirus fluorochrome-tagged Virus-Like-Particles (VLPs) of human papillomavirus type 6b. […] Assay of binding and uptake was determined using flow cytometry and inhibition of binding was reported as a percentage with respect to the binding observed in the absence of inhibitor. The tests were performed in two independent assays
Cells. The human epidermoid carcinoma cell line A431 was purchased from the American Type Culture Collection at passage 30 (CRL-1555, Batch F-13530) and maintained in DMEM in 10% FCS.
Human papillomavirus type 6b VLPs were grown and purified according to standard operating procedures. Particles were labelled with a fluorochrome.
The compound was re-dissolved in sterile water to the concentrations of 5 mM and used fresh for the first assay before being frozen at −20° C. It was then thawed for the second assay.
A T75 flask of A431 cells was washed with 10 ml of PBS/EDTA (0.05%) for 5 minutes at 37° C. before being treated with 2 ml trypsin for a further 5 minutes at 37° C. […]
Results were analysed using WinLisT. […]

Q: With “BHAlyslys2lys4lys8lys16[NH—CO—CH2)O-3,6-Naphthyl-(SO3Na)2]32 [SPL-7013]” as the substance, how does the “Uptake of VLPs at maximal inhibition (% of VLPs alone)” value (1 μM, HPV 6b VLPs) read?
A: 26%

Q: What about the “Uptake inhibition (in words)” value (at 1 μM and 10 nM) of the same substance?
A: shown uptake inhibition
